Reference: patent publication US7517654B2, “Peptide and a derivative thereof promoting cell adhesion and spreading” (Seoul National University Industry Foundation, priority 2004, dated 2009)

Tested on: HOK-16B cells
Assay: Competition of soluble peptides for HOK-16B cell adhesion to rLG3-coated plates
Assay type: cell-based, human
Conditions: HOK-16B cells preincubated 30 min with 100 μg/ml peptide, control without peptide = 100%
Method: To identify the receptor of the HOK-16B cells for rLG3 protein and peptide P4, 5 μg/ml of mAbs to different types of integrins or 5 mM EDTA were preincubated individually with HOK-16B cells in 0.5 ml incubation solution (2×10^5 cells/ml) for 30 min at 37° C. The preincubated cells were then transferred onto plates precoated with either 25 μg/ml of rLG3 protein or 10 μg/well of peptide P4 and incubated for 1 h at 37° C. Attached cells were then quantified by the cell adhesion assay described above in the Experimental Example 2, and cell adhesion activity inhibition rate were measured.
Accordingly, the inventors examined the ability of peptide P4 to compete for cell adhesion activity to rLG3 domain by the method of Experimental Example 4. First, the purified rLG3 proteins (25 μg/well) were coated onto 24-well plates. HOK-16B cells were preincubated with the various peptides (100 μg/ml) or without the peptide for 30 min at 37° C. The preincubated cells were then added to rLG3-coated plates and cultured for 1 h in serum-free medium. The unbound cells were washed off and the adherent cells were fixed and stained with crystal violet. The average adhesion activity of the control cultures (HOK-16B cells preincubated without peptide) was considered 100%, the results are expressed as mean ±SD of the four independent experiments.

Q: With PPFLMLLKGSTR [peptide P4] as the sequence, how does the “inhibition of cell adhesion to rLG3” value read?
A: Its value is “approximately 51%”.
